This data set can be described thus: Natural pH of aqueous solution. The class given is physicochemical.

This is an account of results in patent US5430005A, “Herbicidal compositions” (Monsanto Company, priority 1991, dated 1995).

On to `O=C(O)CNCP(=O)(O)O` [N-phosphonomethylglycine], for which the “natural pH of aqueous solution” value is on record as roughly 4.7.
